{"source": "patent US20130217050A1", "about": "“METHOD FOR DIAGNOSING ALZHEIMER'S DISEASE USING-SOLUBLE GPVI” (MOCHIDA PHARMACEUTICAL CO., LTD., priority 2010, published 2013)", "test_system": "washed monkey platelets", "assay": "sGPVI production mechanism using monkey washed platelets", "format": "cell-based", "settings": "stimulating agent added to washed platelet suspension with calcium chloride, 37° C. for 1 hour; sGPVI in supernatant by ELISA; compared with control group without stimulating agent (FIG. 8)", "method": "Human serum and human plasma were prepared by a 100-fold or more dilution with 0.1% BSA, 0.05% Tween 20, and 0.3 M NaCl/D-PBS and added to the F1232-7-1-immobilized plate to incubate at 28° C. for 2 hours. In addition, a recombinant human sGPVI-His that was expressed and purified by Free Style 293 Expression System (manufactured by Invitrogen) was used as the reference material. After the reaction incubation, the plate was washed with physiological saline containing 0.05% Tween 20. F1232-10-2 Fab′-HRP prepared in Example 1 as a secondary labeled antibody was diluted 100-fold with 2% rat serum and 0.05% Tween 20/D-PBS and added to the well to incubate at 28° C. for 1 hour. After washing the plate, tetramethylbenzidine (hereinafter described as TMB) that was returned to room temperature was added, and incubated for 10 minutes. After stopping the reaction by the addition of 0.5 M sulfuric acid, the absorbance at 450 nm was measured using a microplate reader SpectraMax (manufactured by Molecular Devices), and the absorbance at 650 nm was subtracted as a reference. The resulting absorbance was analyzed using a microplate data analysis software (SoftMax Pro 5.2, manufactured by Molecular Devices). In addition, the data was expressed in terms of mean±standard error (SE) in principle.\nWhole blood was collected from the monkey's leg vein using sodium citrate as an anticoagulant. Platelet-rich plasma (hereinafter described as PRP) was prepared by centrifuging the obtained whole blood at 900 rpm×10 minutes, and only PRP fraction was separated gently by PIPETMAN to transfer it to a new tube. The PRP was centrifuged at 2000 rpm×10 minutes at room temperature to precipitate the platelets. […] The number of platelets was counted by Sysmex F-820 (To a Medical Electronics Co., Ltd.), and the platelet count was adjusted to 40.0×10^7/ml. […]\nThe production of sGPVI was examined by adding various stimulating agents such as collagen, sAβ, or fAβ, to monkey washed platelets. […] The concentration of sGPVI in the reaction mixture was measured by the ELISA method as described in Example 2.", "data": [{"substance": "collagen", "values": [{"measurement": "production of sGPVI", "result": "production of sGPVI was observed"}]}, {"substance": "sAβ: Aβ1-42 (AnaSpec Inc) just after diluted in D-PBS, used as soluble amyloid β", "values": [{"measurement": "production of sGPVI", "result": "production of sGPVI was not observed"}]}, {"substance": "fibril Aβ: Aβ1-42 incubated at room temperature for one week after the dilution in D-PBS, used as fibril amyloid β", "values": [{"measurement": "production of sGPVI", "result": "production of sGPVI was observed"}]}]}
